Data taken from the supplement of paper PMC10307832.

How the values were obtained:
Assay in all cases: relative viability (nuclei count vs DMSO), 5 days (fraction); higher = more cells survive
AZ628 + Olaparib = compound: CC1=C(C=C(C=C1)NC(=O)C2=CC(=CC=C2)C(C)(C)C#N)NC3=CC4=C(C=C3)N=CN(C4=O)C [AZ628] + O=C(c1cc(Cc2n[nH]c(=O)c3ccccc23)ccc1F)N1CCN(C(=O)C2CC2)CC1 [Olaparib] (partner 8 µM)
Outline: (§1)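 Relative viability equals treated-well nuclei counts divided by vehicle-well nuclei counts. Counts came from 4× images of lung cancer cell lines grown in 1536-well plates for 5 days after pin-tool dosing on the day after seeding. Dosing used one drug alone or a fixed anchor-drug dose plus five library-drug doses (not always all listed) in √10 steps, and values are medians of duplicate plates.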

AZ628 + Lapatinib = compound: CC1=C(C=C(C=C1)NC(=O)C2=CC(=CC=C2)C(C)(C)C#N)NC3=CC4=C(C=C3)N=CN(C4=O)C [AZ628] + CS(=O)(=O)CCNCc1ccc(-c2ccc3ncnc(Nc4ccc(OCc5cccc(F)c5)c(Cl)c4)c3c2)o1 [Lapatinib] (partner 2 µM)
Outline: as §1

QS11 + Palbociclib = compound: C1CC2=C(C1)C=C(C=C2)OC3=NC(=C4C(=N3)N(C=N4)CC5=CC=C(C=C5)C6=CC=CC=C6)N[C@@H](CC7=CC=CC=C7)CO [QS11] + CC(=O)c1c(C)c2cnc(Nc3ccc(N4CCNCC4)cn3)nc2n(C2CCCC2)c1=O [Palbociclib] (partner 0.5 µM)
Outline: as §1

QS11 + Pictilisib = compound: C1CC2=C(C1)C=C(C=C2)OC3=NC(=C4C(=N3)N(C=N4)CC5=CC=C(C=C5)C6=CC=CC=C6)N[C@@H](CC7=CC=CC=C7)CO [QS11] + CS(=O)(=O)N1CCN(Cc2cc3nc(-c4cccc5[nH]ncc45)nc(N4CCOCC4)c3s2)CC1 [Pictilisib] (partner 1 µM)
Outline: as §1

Cell Line | relative viability (AZ628 + Olaparib; first compound 0.08 µM) | relative viability (AZ628 + Olaparib; first compound 0.253 µM) | relative viability (AZ628 + Olaparib; first compound 0.8 µM) | relative viability (AZ628 + Olaparib; first compound 2.53 µM) | relative viability (AZ628 + Olaparib; first compound 8 µM) | relative viability (AZ628 + Lapatinib; first compound 0.08 µM) | relative viability (AZ628 + Lapatinib; first compound 0.253 µM) | relative viability (AZ628 + Lapatinib; first compound 0.8 µM) | relative viability (AZ628 + Lapatinib; first compound 2.53 µM) | relative viability (AZ628 + Lapatinib; first compound 8 µM) | relative viability (QS11 + Palbociclib; first compound 0.08 µM) | relative viability (QS11 + Palbociclib; first compound 0.253 µM) | relative viability (QS11 + Palbociclib; first compound 2.53 µM) | relative viability (QS11 + Palbociclib; first compound 8 µM) | relative viability (QS11 + Pictilisib; first compound 0.08 µM) | relative viability (QS11 + Pictilisib; first compound 0.253 µM) | relative viability (QS11 + Pictilisib; first compound 0.8 µM) | relative viability (QS11 + Pictilisib; first compound 2.53 µM) | relative viability (QS11 + Pictilisib; first compound 8 µM) | relative viability (QS11 + Palbociclib; first compound 0.8 µM)
NCI-H3122 | 0.652 | 0.634 | 0.561 | 0.565 | 0.379 | 0.975 | 0.733 | 0.733 | 0.684 | 0.435 | 0.171 | 0.225 | 0.188 | 0.18 | 0.566 | 0.693 | 0.467 | 0.71 | 0.722 | 
NCI-H2170 | 0.56 | 0.598 | 0.607 | 0.638 | 0.551 | 0.3 | 0.279 | 0.248 | 0.268 | 0.278 | 0.391 | 0.472 | 0.365 | 0.371 | 0.326 | 0.356 | 0.327 | 0.276 | 0.263 | 0.291
HCC-78 | 0.94 | 0.808 | 0.807 | 0.786 | 0.903 | 0.81 | 0.725 | 0.961 | 0.703 | 0.479 | 0.462 | 0.531 | 0.457 | 0.358 | 0.206 | 0.185 | 0.206 | 0.222 | 0.29 | 0.464
HARA | 0.762 | 0.764 | 0.869 | 0.84 | 0.51 | 0.742 | 0.633 | 0.57 | 0.671 | 0.488 | 0.256 | 0.212 | 0.252 | 0.259 | 0.358 | 0.46 |  | 0.383 | 0.36 | 0.186
NCI-H2347 | 0.516 | 0.537 | 0.506 | 0.594 | 0.43 | 0.8 | 0.89 | 0.902 | 0.836 | 0.457 | 0.375 | 0.476 | 0.4 | 0.354 | 0.537 | 0.715 | 0.699 | 0.606 | 0.666 | 0.414
NCI-H1437 | 0.584 | 0.605 | 0.767 | 0.597 | 0.54 | 0.858 | 0.735 | 0.738 | 0.94 | 0.97 | 0.299 | 0.351 | 0.287 | 0.239 | 0.421 | 0.468 | 0.38 | 0.41 | 0.399 | 0.239
LXF-289 | 1.13 | 1.01 | 0.922 | 1.08 | 0.756 | 0.882 | 0.884 | 0.79 | 0.843 | 0.58 | 0.639 | 0.634 | 0.564 | 0.621 | 0.761 | 0.796 | 0.673 | 0.704 | 0.754 | 0.502
NCI-H1792 | 0.508 | 0.332 | 0.382 | 0.293 | 0.26 | 0.995 | 0.891 | 0.653 | 0.793 | 0.566 | 0.679 | 0.886 | 0.667 | 0.741 |  | 0.238 | 0.289 | 0.235 | 0.307 | 0.491
